Assay results: publication PMC12608155, “Discovery of Potential Antileishmanial Compounds Through Phenotypic Screening of an Alkaloid Library” (Molecules, 2025)
Like-named read-outs stand apart in the source and are kept apart here.

Tested on: L. donovani IRFP axenic amastigotes
Assay: Primary single-concentration screening on axenic amastigotes, growth inhibition at 72 h
Type: cell-based, Leishmania donovani
Settings: axenic amastigotes; for Growth Inhibition (%) at 72h, 1 µM_Exp1 / Growth Inhibition (%) at 72h, 1 µM_Exp2 / inhibition at 1 µM: 1 µM; for Growth Inhibition (%) at 72h, 10 µM_Exp1 / Growth Inhibition (%) at 72h, 10 µM_Exp2 / inhibition at 10 µM: 10 µM; for inhibition at 1 µM / inhibition at 10 µM: Leishmania donovani
[1] = experiment 1, 72 h, read-out: Growth Inhibition (%) at 72h, 1 µM_Exp1
[2] = experiment 2, 72 h, read-out: Growth Inhibition (%) at 72h, 1 µM_Exp2
[3] = experiment 1, 72 h, read-out: Growth Inhibition (%) at 72h, 10 µM_Exp1
[4] = experiment 2, 72 h, read-out: Growth Inhibition (%) at 72h, 10 µM_Exp2

In the case of `COc1cc2c(cc1OC)[C@H]1[C@@H](C)c3ccc(OC)c(OC)c3CN1CC2` [Corydaline], the “Growth Inhibition (%) at 72h, 1 µM_Exp1” value (experiment 1, 72 h) is reported as -15.75%, the “Growth Inhibition (%) at 72h, 1 µM_Exp2” value (experiment 2, 72 h) is reported as 2.30% and the “Growth Inhibition (%) at 72h, 10 µM_Exp1” value (experiment 1, 72 h) is reported as 79.13%. For the same compound, the “Growth Inhibition (%) at 72h, 10 µM_Exp2” value (experiment 2, 72 h) was 87.39%.

In the case of `COc1cc2c(cc1O)C1Cc3ccc(OC)c(O)c3C[N+]1(C)CC2.[Cl-]` (stereo not drawn) [Cyclanoline (chloride)], the “Growth Inhibition (%) at 72h, 1 µM_Exp1” value (experiment 1, 72 h) is reported as -48.98%, the “Growth Inhibition (%) at 72h, 1 µM_Exp2” value (experiment 2, 72 h) is reported as 13.86% and the “Growth Inhibition (%) at 72h, 10 µM_Exp1” value (experiment 1, 72 h) is reported as 77.56%. The “Growth Inhibition (%) at 72h, 10 µM_Exp2” value (experiment 2, 72 h) was 17.25%.

`CC(=O)C1=C(O)[C@@H]2[C@H]3c4c[nH]c5cccc(c45)C[C@H]3C(C)(C)N2C1=O` [Cyclopiazonic acid] showed an inhibition at 1 µM [1] of 20.8%, an inhibition at 1 µM [2] of 19.9% and an inhibition at 10 µM [3] of 100%. It also gave an inhibition at 10 µM [4] of 100%.

`COc1cc2c(cc1OC)-c1c(C)c3ccc(OC)c(OC)c3c[n+]1CC2.[Cl-]` [Dehydrocorydaline (chloride)] was tested, and the “Growth Inhibition (%) at 72h, 1 µM_Exp1” value (experiment 1, 72 h) was 13.00%, the “Growth Inhibition (%) at 72h, 1 µM_Exp2” value (experiment 2, 72 h) was 31.86% and the “Growth Inhibition (%) at 72h, 10 µM_Exp1” value (experiment 1, 72 h) was 95.47%. For the same compound, the “Growth Inhibition (%) at 72h, 10 µM_Exp2” value (experiment 2, 72 h) was 88.17%.

In the case of `COc1cc2c(cc1OC)-c1c(C)c3ccc(OC)c(OC)c3c[n+]1CC2.[OH-]` [Dehydrocorydaline (hydroxyl)], the “Growth Inhibition (%) at 72h, 1 µM_Exp1” value (experiment 1, 72 h) is reported as 10.19%, the “Growth Inhibition (%) at 72h, 1 µM_Exp2” value (experiment 2, 72 h) is reported as -0.13% and the “Growth Inhibition (%) at 72h, 10 µM_Exp1” value (experiment 1, 72 h) is reported as 92.43%. The “Growth Inhibition (%) at 72h, 10 µM_Exp2” value (experiment 2, 72 h) was 77.86%.

In the case of `COc1cc2c(cc1OC)-c1c(C)c3ccc(OC)c(OC)c3c[n+]1CC2.O=[N+]([O-])[O-]` [Dehydrocorydaline (nitrate)], the “Growth Inhibition (%) at 72h, 1 µM_Exp1” value (experiment 1, 72 h) is reported as 27.42%, the “Growth Inhibition (%) at 72h, 1 µM_Exp2” value (experiment 2, 72 h) is reported as -14.19% and the “Growth Inhibition (%) at 72h, 10 µM_Exp1” value (experiment 1, 72 h) is reported as 82.98%. The “Growth Inhibition (%) at 72h, 10 µM_Exp2” value (experiment 2, 72 h) was 66.56%.

For `COc1ccc2cc3[n+](cc2c1OC)CCc1cc(O)c(O)cc1-3.[Cl-]` [Demethyleneberberine (chloride)], the “Growth Inhibition (%) at 72h, 1 µM_Exp1” value (experiment 1, 72 h) was -4.24%, the “Growth Inhibition (%) at 72h, 1 µM_Exp2” value (experiment 2, 72 h) was 8.25% and the “Growth Inhibition (%) at 72h, 10 µM_Exp1” value (experiment 1, 72 h) was 43.2%. The “Growth Inhibition (%) at 72h, 10 µM_Exp2” value (experiment 2, 72 h) was 71.18%.

Work on `COc1cc(CNC(=O)CCCCCCC(C)C)ccc1O` [Dihydrocapsaicin] yielded an inhibition at 1 µM [1] of -4.08%, an inhibition at 1 µM [2] of 35.3% and an inhibition at 10 µM [3] of 92%. For the same compound, the inhibition at 10 µM [4] was 71.1%.

`CCCCCCCCCCCCCc1cc(=O)c2ccccc2n1C` [Dihydroevocarpine] was tested, and the “Growth Inhibition (%) at 72h, 1 µM_Exp1” value (experiment 1, 72 h) was -21.58%, the “Growth Inhibition (%) at 72h, 1 µM_Exp2” value (experiment 2, 72 h) was 19.18% and the “Growth Inhibition (%) at 72h, 10 µM_Exp1” value (experiment 1, 72 h) was 97.61%. The “Growth Inhibition (%) at 72h, 10 µM_Exp2” value (experiment 2, 72 h) was 83.00%.

In the case of `Cc1c2ccncc2c(C)c2c1[nH]c1ccccc12.Cl` [Ellipticine (hydrochloride)], the “Growth Inhibition (%) at 72h, 1 µM_Exp1” value (experiment 1, 72 h) is reported as 36.30%, the “Growth Inhibition (%) at 72h, 1 µM_Exp2” value (experiment 2, 72 h) is reported as -10.32% and the “Growth Inhibition (%) at 72h, 10 µM_Exp1” value (experiment 1, 72 h) is reported as 98.68%. The “Growth Inhibition (%) at 72h, 10 µM_Exp2” value (experiment 2, 72 h) was 97.67%.

In the case of `Cl.Cl.O=C(C[C@H]1NCCC[C@@H]1O)Cn1cnc2ccccc2c1=O` [Febrifugine (dihydrochloride)], the “Growth Inhibition (%) at 72h, 1 µM_Exp1” value (experiment 1, 72 h) is reported as 74.39%, the “Growth Inhibition (%) at 72h, 1 µM_Exp2” value (experiment 2, 72 h) is reported as 25.76% and the “Growth Inhibition (%) at 72h, 10 µM_Exp1” value (experiment 1, 72 h) is reported as 97.63%. For the same compound, the “Growth Inhibition (%) at 72h, 10 µM_Exp2” value (experiment 2, 72 h) was 97.12%.

Compound `O=C(C[C@H]1NCCC[C@@H]1O)Cn1cnc2ccccc2c1=O` [Febrifugine] has an inhibition at 1 µM [1] of 15.4%, an inhibition at 1 µM [2] of -25.3% and an inhibition at 10 µM [3] of 99.8%. For the same compound, the inhibition at 10 µM [4] was 98.2%.

For `Br.O=C(CC1NCCCC1O)Cn1cnc2cc(Br)c(Cl)cc2c1=O` (stereo not drawn) [Halofuginone (hydrobromide)], the “Growth Inhibition (%) at 72h, 1 µM_Exp1” value (experiment 1, 72 h) was 99.34%, the “Growth Inhibition (%) at 72h, 1 µM_Exp2” value (experiment 2, 72 h) was 83.65% and the “Growth Inhibition (%) at 72h, 10 µM_Exp1” value (experiment 1, 72 h) was 100.16%. For the same compound, the “Growth Inhibition (%) at 72h, 10 µM_Exp2” value (experiment 2, 72 h) was 98.51%.

`O=C(CC1NCCCC1O)Cn1cnc2cc(Br)c(Cl)cc2c1=O` (stereo not drawn) [Halofuginone] was tested, and the inhibition at 1 µM [1] was 93.7%, the inhibition at 1 µM [2] was 90.9% and the inhibition at 10 µM [3] was 97.7%. The inhibition at 10 µM [4] was 98.2%.

With `COC(=O)C[C@](O)(CCC(C)(C)O)C(=O)O[C@@H]1C(OC)=C[C@]23CCCN2CCc2cc4c(cc2[C@H]13)OCO4` [Harringtonine] the inhibition at 1 µM [1] was -25.3%, the inhibition at 1 µM [2] was 3.29% and the inhibition at 10 µM [3] was 92.5%. For the same compound, the inhibition at 10 µM [4] was 92.2%.

For `COC(=O)C[C@](O)(CCCC(C)(C)O)C(=O)O[C@@H]1C(OC)=C[C@]23CCCN2CCc2cc4c(cc2[C@H]13)OCO4` [Homoharringtonine], the inhibition at 1 µM [1] was 4.68%, the inhibition at 1 µM [2] was -119% and the inhibition at 10 µM [3] was 89.9%. For the same compound, the inhibition at 10 µM [4] was 91.5%.

Compound `O=C(O)CNCC(=O)O` [Iminodiacetic acid] has an inhibition at 1 µM [1] of -16.6%, an inhibition at 1 µM [2] of -73% and an inhibition at 10 µM [3] of -16.9%. It also gave an inhibition at 10 µM [4] of 79.9%.

Work on `O=C(O)CCCc1c[nH]c2ccccc12` [Indole-3-butyric acid] yielded an inhibition at 1 µM [1] of -6.27%, an inhibition at 1 µM [2] of 14.8% and an inhibition at 10 µM [3] of 70.2%. It also gave an inhibition at 10 µM [4] of 84%.
